Measurements as given in patent EP4417190A1, “CYCLIC PEPTIDES WITH ANTI-AGING EFFICACY” (Lipotrue, S.L., priority 2023, dated 2024).
Ends that are not written are not given here. Peptide text beside a SMILES is read from it.

How the values were obtained:
[1] = MTT assay, toxicity on HDFa cells; assay type: cell-based; details: human, normalized to non-treated cells, read-out: Cell viability
Experimental: (§1) Toxicity of cycled peptides A and B was analyzed on human dermal fibroblasts (HDFa) and adult human epidermal keratinocytes HEKa cells by MTT assay. A stock solution of the peptide was prepared in distilled water at 25 mg/mL. This stock solution was further diluted to obtain the final working concentrations (0.001, 0.005, 0.01, 0.05, 0.1 and 0.5 mg/mL) in the corresponding culture medium. Untreated cells were used as negative control samples (Basal).
(§2) Briefly, HEKa and HDFa cells were seeded in 96-well plates at a concentration of 1×10^5 cells/mL in a final volume of 200 µL of medium (20,000 cells/well). HEKa cells were incubated in Dermal Cell Basal Medium supplemented with the Keratinocytes Growth Kit; and HDFa cells were cultured in Medium 106 supplemented with 2% of LSGS. Cells were incubated at 37°C, 5% CO2 and saturated humidity.
(§3) After 24 h of incubation, cells were treated with different concentrations of each peptide (0.001, 0.005, 0.01, 0.05, 0.1 and 0.5 mg/mL) in triplicates, for MTT evaluation. After 24 h of treatment with the peptide, medium was completely removed, and 100 µL of 0.5 mg/mL MTT solution in supplemented medium were added to each well and cells were incubated at 37°C for 3 h. After incubating with MTT, the medium of each well was aspirated and 150 µL of DMSO were added in order to solubilise the formazan crystals formed. The plates were placed on a shaker for 5 minutes for complete solubilisation of the crystals and then the absorbance at 570 nm of each well was determined, using the microplate reader Multiskan FC, which is directly proportional to the number of living cells in culture.
(§4) Absorbance values were normalized using the data obtained for non-treated cells (control), obtaining the % of viability shown in Tables 1 and 2. Each condition was performed in triplicate (n=3) in 3 independent experiments (N=3).
(§5) Concentrations of peptide for which viability is above 80% are considered safe for efficacy testing. On the contrary, concentrations for which viability goes below 80% are considered potentially toxic and are not used for efficacy testing purposes. Table 1: Toxicity of cycled peptides on HDFa cells.

[2] = MTT assay, toxicity on HEKa cells; assay type: cell-based; details: human, normalized to non-treated cells, read-out: Cell viability
Experimental: as §1, §2, §3, §4, §5

Caspase 3 (CASP3) = assay: Caspase 3 activity under BFA-induced endoplasmic reticulum stress in HEKa (Caspase-Glo 3/7); assay type: cell-based, human; details: BFA-induced ER stress, 24 h, vs BFA-treated cells (Figure 5)
Experimental: Caspase 3 (CASP3) is a protein member of the cysteine-aspartic acid protease family. Sequential activation of caspases plays a central role in the execution-phase of cell apoptosis. It was evaluated the effect of the cycled peptide B on the caspase 3 activity in human epidermal keratinocytes from adult (HEKa) subjected to endoplasmic reticulum (ER) stress.
HEKa cells were seeded in a black 96-well plate at a density of 18.000 cell/well in Dermal Cell Basal Medium (DCBM) and incubated at 37 °C in a humidified atmosphere with 5% CO2. After 24 h of incubation, cells were treated with 0.15 µg/mL BFA alone or in the presence of 0.005 mg/mL of the cycled peptide B and returned to the incubator for 24 h more. Untreated cells (Basal) were used as negative control samples. 24 hours after treatment, caspase 3 activity was evaluated using Caspase-Glo® 3/7 Assay System, following manufacturer instructions.
Each condition was performed at least in triplicates (n=3) in three independent experiments (N=3). For all data, mean values of relative fluorescence units (RFU) of the different experiments and SEM values are shown. All data was normalized as follows: % vs BFA = (RFU treated cells)/(RFU BFA treated cells) × 100 [formula]
Statistical data analysis was performed using Student t-test by comparison of % activity from test substance vs BFA-treated cells, *p<0.05, **p<0.01, ***p<0.001.

CALR = assay: RT-qPCR expression of CALR gene in HEKa; details: 0.01 mg/mL, 24 hours, qPCR (Table 5)
Experimental: HEKa cells were incubated in the presence of 0.01 mg/mL cycled peptide B for 24 hours and HDFa cells were treated with 0.05 mg/mL of cycled peptide B for 6 h. Then, cells were lysed, and RNA was extracted (RNeasy mini kit, Qiagen). Purified RNAs were retro-transcribed (High-capacity cDNA reverse transcription kit, Applied Biosystems). RT-qPCR was performed with the panel of TaqMan assay probes (Thermo Fisher Scientific) using StepOne plus Real time PCR instrument. […] The obtained data were analyzed using the ΔΔCt method, which provides the target gene expression values as fold changes in the treated sample compared with an untreated basal sample. Both samples were normalized with the relative expression of the housekeeping gene GAPDH.
Additionally, expression of CALR after treatment with 0.01 mg/mL of cycled peptides A and B for 24 hours in HEKa cells was analyze by qPCR as described in example 3.

caspase 3 activity (Caspase 3 (CASP3)) | CALR expression, Ratio (CALR; Basal = 1.00) | Molecule | viability at 24 h ([1]; 0.001 mg/mL peptide) | viability at 24 h ([1]; 0.005 mg/mL peptide) | viability at 24 h ([1]; 0.01 mg/mL peptide) | viability at 24 h ([1]; 0.05 mg/mL peptide) | viability at 24 h ([1]; 0.1 mg/mL peptide) | viability at 24 h ([1]; 0.5 mg/mL peptide) | viability at 24 h ([2]; 0.001 mg/mL peptide) | viability at 24 h ([2]; 0.005 mg/mL peptide) | viability at 24 h ([2]; 0.01 mg/mL peptide) | viability at 24 h ([2]; 0.05 mg/mL peptide) | viability at 24 h ([2]; 0.1 mg/mL peptide) | viability at 24 h ([2]; 0.5 mg/mL peptide) | CALR expression, Effect (CALR)
significantly reduce | 1.34 | CC(C)C[C@@H]1NC(=O)[C@H](C)NC(=O)[C@H](CCCNC(=N)N)NC(=O)[C@H](Cc2ccccc2)NC(=O)[C@H](Cc2c[nH]c3ccccc23)NC(=O)[C@H](Cc2c[nH]cn2)NC1=O [Peptide A, cyclo-Trp-Phe-Arg-Ala-Leu-His] (cyclo(ALHWFR)) | 101% | 103% | 94.5% | 103% | 92.3% | 81.5% | 103% | 108% | 109% | 93.8% | 88.3% | 75% | Upregulation
– | – | FWHALR [Linear peptide B, reference compound] | – | – | – | – | – | – | – | – | – | – | – | – | No effect
